The text below walks through data of patent US10745356B2, “Compositions and methods for treating tuberculosis” (priority 2015, dated 2020).

The structures appear in SMILES notation. Values after ≈ are worked out from the molar mass of the structure shown.

One experiment concerns M. tuberculosis strains. Briefly: Minimum Inhibitory Concentration (MIC) against M. tuberculosis strains, resazurin microtiter plate assay. The experiment is classed as cell-based, Mycobacterium tuberculosis. Conditions: Mycobacterium tuberculosis. For orientation: The colour change of resazurin is a common sign of viable cells or microbes.
For the compound `CNC(=O)c1cc(-c2ccccc2F)c2c(C)c(C3=CCC(CO)CC3)c(C)cc2n1` (stereo not drawn) [Compound 91], the MIC90 (usually the lowest concentration that inhibits either 90% of growth or 90% of the strains tested, depending on the study) turned out to be 0.6 µM (≈ 0.251 µg/mL).

The compound `Cc1cc2nccc(-c3ccc(Cl)cc3)c2c(C)c1-c1ccc(CN2CCOCC2)cc1` [Compound 50] came in with an MIC90 of 80 µM (≈ 35.4 µg/mL).

For the compound `Cc1cc2nccc(-c3ccccc3)c2c(C)c1-c1ccc(CN2CCOCC2)cc1` [Compound 47], the MIC90 amounted to 0.45 µM (≈ 0.184 µg/mL).

For `Cc1cc2nccc(-c3ccccc3)c2c(C)c1-c1ccn(C)n1` [Compound 75], the MIC90 is more than 125 µM.

`Cc1cc2nccc(-c3ccnn3C)c2c(C)c1-c1ccc(CN2CCOCC2)cc1` [Compound 63] had an MIC90 of 2.2 µM (≈ 0.908 µg/mL).

`Cc1cccc(C)c1-c1ccnc2cc(C)c(-c3ccc(CN4CCOCC4)cc3)c(C)c12` [Compound 58] yielded an MIC90 of 5 µM (≈ 2.18 µg/mL).

`CNC(=O)c1cc(N2CCCCC2)c2c(C)c(-c3ccncc3)c(C)cc2n1` [Compound 69] returned an MIC90 of 5 µM (≈ 1.87 µg/mL).

`CNC(=O)c1cc(-c2ccc(Cl)cc2)c2c(C)c(-c3ccncc3)c(C)cc2n1` [Compound 67] registered an MIC90 of 40 µM (≈ 16.1 µg/mL).

In the case of `Cc1cc2nc(C(=O)NCCF)cc(-c3ccccc3Cl)c2c(C)c1-c1ccncc1` [Compound 31], the MIC90 amounted to 1.25 µM (≈ 0.542 µg/mL).

Staying with this experiment, now noted: Mycobacterium tuberculosis, Table 1, C2 SAR with chlorophenyl; Middlebrook 7H9, 37° C. six days, resazurin fluorescence after 48 hours; read-out: MIC90.
Turning to `Cc1cc2nc(C(=O)N3CCCC3)cc(-c3ccccc3Cl)c2c(C)c1-c1ccncc1` [Compound 19], the MIC90 came to 2.5 µM (≈ 1.1 µg/mL).

For `CNc1cc(-c2ccccc2Cl)c2c(C)c(-c3ccncc3)c(C)cc2n1` [Compound 8], the MIC90 stood at 6 µM (≈ 2.24 µg/mL).

For `Cc1cc2nc(C(=O)NC(CO)CO)cc(-c3ccccc3Cl)c2c(C)c1-c1ccncc1` [Compound 34], the MIC90 turned out to be 1.9 µM (≈ 0.878 µg/mL).

Take `Cc1cc2nc(CCC(=O)N(C)C)cc(-c3ccccc3Cl)c2c(C)c1-c1ccncc1` [Compound 10]: the MIC90 came out at 20 µM (≈ 8.88 µg/mL).

For `Cc1cc2nc(C(=O)NO)cc(-c3ccccc3Cl)c2c(C)c1-c1ccncc1` [Compound 17], the MIC90 is 10 µM (≈ 4.04 µg/mL).

Take `Cc1cc2nc(C(=O)NC3CCN(C)CC3)cc(-c3ccccc3Cl)c2c(C)c1-c1ccncc1` [Compound 33]: the MIC90 amounted to 0.8 µM (≈ 0.388 µg/mL).

For `Cc1cc2nc(NCCO)cc(-c3ccccc3Cl)c2c(C)c1-c1ccncc1` [Compound 9], the MIC90 was determined as 3 µM (≈ 1.21 µg/mL).

In the case of `Cc1cc2nc(C(=O)N(C)C)cc(-c3ccccc3Cl)c2c(C)c1-c1ccncc1` [Compound 29], the MIC90 is 20 µM (≈ 8.32 µg/mL).

Take `Cc1cc2nc(C(=O)NC3CCN(C)C3)cc(-c3ccccc3Cl)c2c(C)c1-c1ccncc1` (stereo not drawn) [Compound 25]: the MIC90 was found to be 1.25 µM (≈ 0.589 µg/mL).

Turning to `CNS(=O)(=O)c1cc(-c2ccccc2Cl)c2c(C)c(-c3ccncc3)c(C)cc2n1` [Compound 11], the MIC90 came to 10 µM (≈ 4.38 µg/mL).

Consider `Cc1cc2nc(C(=O)NC(C)CCO)cc(-c3ccccc3Cl)c2c(C)c1-c1ccncc1` (stereo not drawn) [Compound 26], for which the MIC90 worked out at 1.25 µM (≈ 0.575 µg/mL).

The same experiment, now with this note: Mycobacterium tuberculosis, Table 1A, C2 SAR with fluorophenyl; Middlebrook 7H9, 37° C. six days, resazurin fluorescence after 48 hours; read-out: MIC90.
Regarding `Cc1cc2nccc(-c3ccccc3F)c2c(C)c1-c1ccncc1` [Compound 36], the MIC90 is 5 µM (≈ 1.64 µg/mL).

As to `Cc1cc2nc(C(=O)N[C@@H](C)CCO)cc(-c3ccccc3F)c2c(C)c1-c1ccncc1` [Compound 42], the MIC90 was 0.16 µM (≈ 0.071 µg/mL).

On to `Cc1cc2nc(C(=O)NCCO)cc(-c3ccccc3F)c2c(C)c1-c1ccncc1` [Compound 38], for which the MIC90 was 1.6 µM (≈ 0.665 µg/mL).

As for `CNC(=O)c1cc(-c2ccccc2F)c2c(C)c(-c3ccncc3)c(C)cc2n1` [Compound 37], the MIC90 was 1.25 µM (≈ 0.482 µg/mL).

For the compound `Cc1cc2nc(C(=O)NC[C@H](O)CO)cc(-c3ccccc3F)c2c(C)c1-c1ccncc1` [Compound 43], the MIC90 turned out to be 0.8 µM (≈ 0.356 µg/mL).

Staying with this experiment, now noted: Mycobacterium tuberculosis, Table 2, C4 SAR; Middlebrook 7H9, 37° C. six days, resazurin fluorescence after 48 hours; read-out: MIC90.
As to `Cc1cc2nccc(-c3cncnc3)c2c(C)c1-c1ccc(CN2CCOCC2)cc1` [Compound 64], the MIC90 was 2.5 µM (≈ 1.03 µg/mL).

The experiment is the same for the next values; noted with them: Mycobacterium tuberculosis, Table 3, C4 SAR; Middlebrook 7H9, 37° C. six days, resazurin fluorescence after 48 hours; read-out: MIC90.
In the case of `CNC(=O)c1cc(N2CCOCC2)c2c(C)c(-c3ccncc3)c(C)cc2n1` [Compound 70], the MIC90 was 20 µM (≈ 7.53 µg/mL).

As to `CNC(=O)c1cc(-c2ccccc2F)c2c(C)c(-c3ccncc3)c(C)cc2n1` [Compound 37], the MIC90 came to 0.6 µM (≈ 0.231 µg/mL).

With `CNC(=O)c1cc(-c2cncnc2)c2c(C)c(-c3ccncc3)c(C)cc2n1` [Compound 68], the MIC90 was 10 µM (≈ 3.69 µg/mL).

The experiment is the same for the next values; noted with them: Mycobacterium tuberculosis, Table 4, C6 SAR; Middlebrook 7H9, 37° C. six days, resazurin fluorescence after 48 hours; read-out: MIC90.
As to `Cc1cc2nccc(-c3ccccc3)c2c(C)c1-c1cncnc1` [Compound 73], the MIC90 worked out at 40 µM (≈ 12.5 µg/mL).

As to `Cc1cc2nccc(-c3ccccc3)c2c(C)c1-c1cnco1` [Compound 74], the MIC90 was determined as 31 µM (≈ 9.31 µg/mL).

The experiment is the same for the next values; noted with them: Mycobacterium tuberculosis, Table 4A, C6 SAR with amide; Middlebrook 7H9, 37° C. six days, resazurin fluorescence after 48 hours; read-out: MIC90.
Consider `CNC(=O)c1cc(-c2ccccc2F)c2c(C)c(-c3ccnc(C(F)(F)F)c3)c(C)cc2n1` [Compound 79], for which the MIC90 is 5 µM (≈ 2.27 µg/mL).

On to `CNC(=O)c1cc(-c2ccccc2F)c2c(C)c(-c3ccnc(C)c3)c(C)cc2n1` [Compound 84], for which the MIC90 was 6 µM (≈ 2.4 µg/mL).

Turning to `CNC(=O)c1cc(-c2ccccc2F)c2c(C)c(-c3ccncc3)c(C)cc2n1` [Compound 37], the MIC90 worked out at 1.25 µM (≈ 0.482 µg/mL).

Still in this experiment, the particulars now being: Mycobacterium tuberculosis, Table 5; Middlebrook 7H9, 37° C. six days, resazurin fluorescence after 48 hours; read-out: MIC90.
For the compound `Cc1cc2nc(C(=O)NCCO)cc(-c3ccccc3)c2c(C)c1-c1ccncc1` [Compound 96], the MIC90 was determined as 0.3 µM (≈ 0.119 µg/mL).

Turning to `CNC(=O)c1cc(C2=CCCCC2)c2c(C)c(-c3ccncc3)c(C)cc2n1` [Compound 102], the MIC90 turned out to be 3 µM (≈ 1.11 µg/mL).

`CNC(=O)c1cc(N2CCN(C)CC2)c2c(C)c(-c3ccncc3)c(C)cc2n1` [Compound 100]: the MIC90 is more than 50 µM.

Take `CNC(=O)c1cc(C2=CCOCC2)c2c(C)c(-c3ccncc3)c(C)cc2n1` [Compound 99]: the MIC90 was found to be 12.5 µM (≈ 4.67 µg/mL).

For the compound `Cc1cc2nc(C(=O)N[C@H]3CCC[C@@H]3O)cc(-c3ccccc3F)c2c(C)c1-c1ccncc1` [Compound 97], the MIC90 was less than 0.16 µM.

Still in this experiment, the particulars now being: Mycobacterium tuberculosis, Table 6; Middlebrook 7H9, 37° C. six days, resazurin fluorescence after 48 hours; read-out: MIC90.
For the compound `Cc1cc2nc(C(=O)NCCO)cc(-c3ccnn3C)c2c(C)c1-c1ccncc1` [Compound 107], the MIC90 stood at 1.6 µM (≈ 0.642 µg/mL).

Take `Cc1cc2nc(C(=O)N3CCC(N(C)C)C3)cc(-c3ccccc3Cl)c2c(C)c1-c1ccc(CN2CCOCC2)cc1` (stereo not drawn) [Compound 103]: the MIC90 was determined as 0.8 µM (≈ 0.467 µg/mL).

The experiment is the same for the next values; noted with them: Table 4, C6 SAR; Middlebrook 7H9, 37° C. six days, resazurin fluorescence after 48 hours; read-out: MIC90.
With `Cc1cc2nccc(-c3ccccc3)c2c(C)c1-c1ccc(CN2CCOCC2)cc1` [Compound 47], the MIC90 turned out to be 0.45 µM (≈ 0.184 µg/mL).
